This is an account of results in PMC4111400 (Journal of Medicinal Chemistry, 2014).

Read-outs that look alike come from different tables or passages of the source.

Assay [1] has as its system Na+ channels in CAD cells. Nature of the assay: frequency. The format is cell-based, mouse. As to conditions: 500 μM (Figure 9 legend: concentrations greater than 500 μM).
Assay [2] deals with Na+ channels in CAD cells. The following applies: 100 μM; cited from earlier work.
Assay [3] concerns subcutaneous Metrazol (scMet) seizure. The following applies: 10−13; cited from earlier work.
In assay [4] the test system is hippocampal kindled seizure. As to conditions: ip; cited from earlier work.
Assay [5] relates to Na+ channels in CAD cells. As to conditions: cited from earlier work.

As for `COC[C@@H](NC(C)=O)C(=O)NCc1ccccc1` [(R)-1, (R)-N-Benzyl 2-acetamido-3-methoxypropionamide], the “frequency (use) inhibition of Na+ currents” value in assay [1] is reported as “significant inhibition of use-dependence”; in assay [2] it was “not observed notable frequency (use) inhibition of Na^+ currents”. The “activity in the scMet model” value in assay [3] is “no activity”. The “ED50, rat hippocampal seizure model” value in assay [4] is reported as 14 mg/kg. The “effect on Na+ channel fast inactivation” value in assay [5] is given as “did not affect Na^+ channel fast inactivation”.
